Laboratory results published in paper PMC3441526, “KCN1, a Novel Synthetic Sulfonamide Anticancer Agent: In Vitro and In Vivo Anti-Pancreatic Cancer Activities and Preclinical Pharmacology” (PLoS ONE, 2012).

Tests used:
[1] = system: glioma cells; set-up: method as in PMID 22923450; settings: glioma cells ref 31; cited from earlier work
[2] = system: BxPC3 cells; assay: BrdUrd incorporation cell proliferation assay; format: cell-based; settings: Homo sapiens, BXPC-3; BxPC3, 50 µM, 24 h
Procedure: (§1) The effect of KCN1 on cell proliferation was determined using the BrdUrd incorporation assay (Oncogene, La Jolla, CA) according to the manufacturer’s instructions, [47]. In brief, cells were seeded in 96-well plates (8 × 10^3 to 1.2 × 10^4 cells per well) and incubated with various concentrations of KCN1 (0, 5, 12.5 and 50 µM) for 24 h. BrdUrd was added to the medium 10 h before termination of the experiment. The BrdUrd incorporated into cells was determined by anti-BrdUrd antibody, and absorbance was measured at dual wavelengths of 450/540 nm using an OPTImax microplate reader (Molecular Devices; Sunnyvale, CA).

[3] = system: HPAC cells; assay: BrdUrd incorporation cell proliferation assay; format: cell-based; settings: Homo sapiens, 24 h
Procedure: as §1

[4] = system: Panc-1 cells; assay: BrdUrd incorporation cell proliferation assay; format: cell-based; settings: Homo sapiens; Panc-1, 50 µM, 24 h
Procedure: as §1

[5] = system: Mia Paca-2 cells; assay: BrdUrd incorporation cell proliferation assay; format: cell-based; settings: Homo sapiens; Mia Paca-2, 50 µM, 24 h
Procedure: as §1

[6] = system: BxPC3 cells; assay: Cell cycle measurement by flow cytometry; format: cell-based, human; settings: for cell cycle distribution, G1 / cell cycle distribution, G2/M / cell cycle distribution, S: 24 h
Procedure: (§2) To determine the effect of KCN1 on the cell cycle, cells (2–3×10^5) were exposed to the test compounds (0, 5, 12.5 or 50 µM) and incubated for 24 h prior to analysis. Cells were trypsinized, washed with PBS, and fixed in 1.5 mL of 95% ethanol at 4°C overnight, followed by incubation with RNAse and staining with propidium iodide (Sigma). The DNA content was determined by flow cytometry, [47].

[7] = system: HPAC cells; assay: Cell cycle measurement by flow cytometry; format: cell-based, human; settings: 24 h
Procedure: as §2

[8] = system: HPAC cells; assay: Anchorage-independent growth assay (soft agar); format: cell-based, human; settings: 14 days
Procedure: (§3) Pancreatic cancer cells were treated with various concentrations of KCN1 in 0.8 ml of 0.35% agar containing 10% FBS. The cultures were maintained in 37°C, 5% CO2 incubator for two weeks. Then, cell colonies were observed and scored under a microscope.

[9] = system: Panc-1 cells; assay: Anchorage-independent growth assay (soft agar); format: cell-based, human; settings: Panc-1, soft agar, 14 days
Procedure: as §3

[10] = S9 metabolism; format: in vitro ADME, CD2F1 mice
Procedure: The in vitro metabolism of KCN1 was determined using hepatic microsomal S9 fractions from CD2F1 mice (In Vitro Technologies, Boston, MA). The reaction mixture consisted of 20 µL of 1000 µM KCN1 (in DMSO) and 1280 µL of cold 100 mM Tris buffer (pH 7.4). The reactions were initiated by adding 200 µL of the appropriate S9 fraction, and were maintained at 37°C. […] Metabolic reactions were initiated by adding phase I (NADPH-regenerating systems) or phase II (UDPGA and PAPS) reagents to the reaction mixtures, respectively. At designated time points (0, 15, 30, 45, and 60 min), duplicate 100 µL portions of the incubation mixture were removed and subjected to HPLC analysis by the same procedure described for plasma samples above. The stability of the drug was determined by analysis of intact KCN1, in comparison with negative control (without S9 fractions).

[11] = Tolerability on repeated intraperitoneal dosing; format: in vivo, mice
[12] = system: BxPC3 cells; assay: MTT cell survival assay; format: cell-based; settings: Homo sapiens, BXPC-3
Procedure: (§4) The effect of the test compound on human pancreatic cancer cell viability, expressed as the percentage of cell survival, was determined using the MTT assay [45]–[47]. Cells were grown in 96-well plates at 4–5×10^3 cells per well and exposed to different concentrations of the test compound (0, 1, 5, 12.5, 25, 50 or 100 µM). After incubation for different times, 10 µL of the MTT solution (5 mg/mL; Sigma; St. Louis, MO) were added into each well. The plates were incubated for 2–4 hr at 37°C. The supernatant was then removed and the formazan crystals were dissolved with 100 µL of DMSO. The absorbance at 570 nm was recorded using an OPTImax microplate reader (Molecular Devices; Sunnyvale, CA). The cell survival percentages were calculated by dividing the mean optical density (OD) of compound-containing wells by that of DMSO-containing control wells. Three separate experiments were accomplished to determine the IC50 values.

[13] = system: HPAC cells; assay: MTT cell survival assay; format: cell-based; settings: Homo sapiens, 72 h
Procedure: as §4

[14] = system: Panc-1 cells; assay: MTT cell survival assay; format: cell-based; settings: Homo sapiens
Procedure: as §4

[15] = system: Mia Paca-2 cells; assay: MTT cell survival assay; format: cell-based; settings: Homo sapiens
Procedure: as §4

For `COc1ccc(S(=O)(=O)N(Cc2ccc3c(c2)C=CC(C)(C)O3)c2ccccc2)cc1OC` [KCN1, 3,4-dimethoxy-N-[(2,2-dimethyl-2H-chromen-6-yl)methyl]-N-phenylbenzenesulfonamide], the cytostatic effect [1] is listed as “little cytostatic effect”, the inhibition at 50 µM [2] is listed as ~88% and the inhibition at 50 µM [3] is listed as ~80%. The inhibition at 50 µM [4] was ~56%, the inhibition at 50 µM [5] was ~60% and the “cell cycle distribution, G1” value ([6]; BXPC3, 5 µM) was 52.9±4.1. The “cell cycle distribution, G2/M” value ([6]; BXPC3, 5 µM) was 26.4±1.3, the “cell cycle distribution, S” value ([6]; BXPC3, 5 µM) was 20.8±3.8 and the “cell cycle distribution, G1” value ([6]; BXPC3, 12.5 µM) was 65.1±3.5. The “cell cycle distribution, G2/M” value ([6]; BXPC3, 12.5 µM) was 17.4±1.9, the “cell cycle distribution, S” value ([6]; BXPC3, 12.5 µM) was 17.5±2.1 and the “cell cycle distribution, G1” value ([6]; BXPC3, 50 µM) was 70.8±2.0. For the same compound, the “cell cycle distribution, G2/M” value ([6]; BXPC3, 50 µM) was 15.5±1.7, the “cell cycle distribution, S” value ([6]; BXPC3, 50 µM) was 13.7±0.9 and the “concentration at which G1 arrest begins” value ([6]; BxPC3, 24 h) was 5 µM. For the same compound, the “cell cycle distribution, G1” value ([7]; 5 µM) was 62.1±4.9, the “cell cycle distribution, G2/M” value ([7]; 5 µM) was 11.8±1.2 and the “cell cycle distribution, S” value ([7]; 5 µM) was 26.1±3.8. For the same compound, the “cell cycle distribution, G1” value ([7]; 12.5 µM) was 66.8±1.6, the “cell cycle distribution, G2/M” value ([7]; 12.5 µM) was 10.9±1.3 and the “cell cycle distribution, S” value ([7]; 12.5 µM) was 22.4±1.6. The “cell cycle distribution, G1” value ([7]; 50 µM) was 68.8±2.7, the “cell cycle distribution, G2/M” value ([7]; 50 µM) was 11.5±1.4 and the “cell cycle distribution, S” value ([7]; 50 µM) was 19.7±1.4. The “concentration at which G1 arrest begins” value [7] was 5 µM, the “decrease in number of colonies formed” value [8] was 4 fold and the “decrease in number of colonies formed” value [9] was 3 fold. The “decrease in amount of KCN1” value ([10]; mouse S9, phase I (oxidation) enzymes, NADPH-regenerating system) was “more than 60%”, the “half-life with phase II enzymes” value ([10]; mouse S9, phase II (conjugation) enzymes, UDPGA and PAPS) was “relatively long half-life” and the “pathological examination of brain, kidneys, GI tract or lungs at necropsy” value ([11]; data not shown) was “no ultra-structural changes”. The “signs of toxicity, behavior and appearance” value ([11]; i.p. up to 60 mg/kg daily for up to 12 weeks) was “no apparent signs of toxicity”, the tolerability of regimen ([11]; i.p. up to 60 mg/kg daily in cremophor:ethanol for up to 12 weeks) was “well tolerated” and the “time to reversal of liver swelling after discontinuation of treatment” value ([11]; mouse, in vivo) was 2–3 weeks. For the same compound, the “blood cell populations and blood chemistry” value ([11]; preliminary analyses, data not shown) was “within normal limits”, the “liver finding at autopsy” value ([11]; tissue edema with bile duct stasis, no hepatocyte death, may be caused by cremophor:ethanol formulation) was “Swelling was observed in the livers” and the inhibition at 100 µM ([12]; BxPC3, 100 µM, 72 h, read-out: inhibition of cell growth) was 81%. For the same compound, the IC50 ([12]; BxPC3, 72 h, MTT, read-out: Cytotoxicity: IC50) was 14.62 ± 0.1 µM, the inhibition at 100 µM ([13]; 100 µM, read-out: inhibition of cell growth) was 83% and the IC50 ([13]; MTT, read-out: Cytotoxicity: IC50) was 17.91 ± 0.12 µM. It also gave an inhibition at 100 µM ([14]; Panc-1, 100 µM, 72 h, read-out: inhibition of cell growth) of 53%, an IC50 ([14]; Panc-1, 72 h, MTT, read-out: Cytotoxicity: IC50) of 100 ± 2.35 µM and an inhibition at 100 µM ([15]; Mia Paca-2, 100 µM, 72 h, read-out: inhibition of cell growth) of 61%. For the same compound, the IC50 ([15]; Mia Paca-2, 72 h, MTT, read-out: Cytotoxicity: IC50) was 69.9 ± 2.12 µM.
